These results are taken from PubChem BioAssay AID588630 (NMMLSC, 2011).

Structures are written as SMILES. Where “and” joins values, the source holds several entries; their conditions need not be identical. Identical values can stand only once. Calls of active or inactive are those of the source.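 Rule for the calls: active = fitted potency at or below 10 µM with a response change of at least 30% across doses and an acceptable curve fit; inactive = the rest.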

The target of this test is GTPase HRas (Homo sapiens) (UniProt P01112). Briefly: H-Ras wildtype GTP-binding inhibitors, SAR follow-up, biochemical, GST-H-Ras beads, Bodipy-FL-GTP, flow cytometry, multiplex, round 2 (AID 588630). The conditions noted are these: for % response (remaining GTP binding): at 100 µM (top of the series).
Chain of GTPase HRas (Homo sapiens) (P01112 whole entry, looked up): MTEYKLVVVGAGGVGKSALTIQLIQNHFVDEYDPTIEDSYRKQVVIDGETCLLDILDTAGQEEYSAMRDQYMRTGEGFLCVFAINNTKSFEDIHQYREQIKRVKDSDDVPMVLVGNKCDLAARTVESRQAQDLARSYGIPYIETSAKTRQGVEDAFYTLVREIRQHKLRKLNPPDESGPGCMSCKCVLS

Consider `Cc1cccc(C(=O)NC(=S)Nc2sc3c(c2C(=O)O)CC(C)(C)OC3)c1`, for which the EC50 (in general, the concentration needed to bring the measured effect to its halfway point) was 1390 nM.

With `COc1cccc(C(=O)NC(=S)Nc2sc3c(c2C(=O)O)CC(C)(C)OC3)c1`, the EC50 was 275 nM.

Take `O=C(NC(=S)Nc1sc2c(c1C(=O)O)CC1(CCCC1)OC2)c1ccccc1`: the EC50 was 31 nM.

As to `CC1(C)Cc2c(sc(NC(=S)NC(=O)c3ccc(F)cc3)c2C(=O)O)CO1`, the EC50 was 98 nM.

On to `Cc1ccc(C(=O)NC(=S)Nc2sc3c(c2C(=O)O)CC(C)(C)OC3)cc1`, for which the EC50 is 193 nM.

Take `Cc1ccccc1C(=O)NC(=S)Nc1sc2c(c1C(=O)O)CC(C)(C)OC2`: the EC50 is 444 nM.

For `CC1Cc2c(sc(NC(=S)NC(=O)c3ccccc3)c2C(=O)O)CO1` (centres undefined), the EC50 is 201 nM.

Consider `CC1(C)Cc2c(sc(NC(=S)NC(=O)c3cccs3)c2C(=O)O)CO1`, for which the EC50 is 35 nM.

In the case of `CC1(C)Cc2c(sc(NC(=S)NC(=O)C3CCCCC3)c2C(=O)O)CO1`, the EC50 was 625 nM.

Consider `CC1(C)CCc2sc(NC(=S)NC(=O)c3ccccc3)c(C(=O)O)c2C1`, for which the 50% effective concentration (EC50) is 43 nM.

As to `CC1(C)Cc2c(sc(NC(=S)NC(=O)c3ccc(Br)cc3)c2C(=O)O)CO1`, the EC50 was 597 nM.

For `CCC1(C)Cc2c(sc(NC(=S)NC(=O)c3ccccc3)c2C(=O)O)CO1` (centres undefined), the EC50 is 37 nM.

As to `CC1(C)Cc2c(sc(NC(=S)Nc3ccccc3)c2C(=O)O)CO1`, the “% response (remaining GTP binding)” value is “inactive”.

With `CC1(C)Cc2c(sc(NC(=S)NC(=O)c3ccccc3)c2C(=O)O)CO1`, the EC50 was 20 nM.

As for `CC1(C)Cc2c(sc(NC(=S)NC(=O)c3cccc(F)c3)c2C(=O)O)CO1`, the EC50 was 436 nM.

`CC(C)(C)C1Cc2c(sc(NC(=S)NC(=O)c3ccccc3)c2C(=O)O)CO1` (centres undefined): the EC50 was 140 nM.

Consider `CC1(C)Cc2c(sc(NC(=S)NC(=O)c3ccccc3Br)c2C(=O)O)CO1`, for which the EC50 is 1780 nM.

In the case of `CC1(C)Cc2c(sc(NC(=S)NC(=O)c3ccccc3F)c2C(=O)O)CO1`, the EC50 is 359 nM.

For `CC1(C)Cc2c(sc(NC(=O)NC(=O)c3ccccc3)c2C(=O)O)CO1`, the EC50 was 725 nM.

As to `CC1(C)Cc2c(sc(NC(=S)NC(=O)c3cccc(Br)c3)c2C(=O)O)CO1`, the “% response (remaining GTP binding)” value is “inactive”.

As for `COc1ccccc1C(=O)NC(=S)Nc1sc2c(c1C(=O)O)CC(C)(C)OC2`, the 50% effective concentration (EC50) was 1320 nM.

As for `COc1ccc(C(=O)NC(=S)Nc2sc3c(c2C(=O)O)CC(C)(C)OC3)cc1`, the concentration giving a half-maximal response (EC50) is 250 nM.

Turning to `O=C(NC(=S)Nc1sc2c(c1C(=O)O)CCOC2)c1ccccc1`, the 50% effective concentration (EC50) was 106 nM and 242 nM.

With `CC1(C)Cc2c(sc(NC(=S)NC(=O)c3ccco3)c2C(=O)O)CO1`, the 50% effective concentration (EC50) is 79 nM.
